The results in this text go back to BindingDB's records for doi:10.1007/bf00165806 (UniversitÄT Heidelberg, 1987).

One assay has as its target Adenosine receptor A2a (Homo sapiens, UniProt P29274).
The target in another assay is T1, Adenosine receptor A1 (Bos taurus, UniProt P28190).
T1 sequence (P28190 whole entry): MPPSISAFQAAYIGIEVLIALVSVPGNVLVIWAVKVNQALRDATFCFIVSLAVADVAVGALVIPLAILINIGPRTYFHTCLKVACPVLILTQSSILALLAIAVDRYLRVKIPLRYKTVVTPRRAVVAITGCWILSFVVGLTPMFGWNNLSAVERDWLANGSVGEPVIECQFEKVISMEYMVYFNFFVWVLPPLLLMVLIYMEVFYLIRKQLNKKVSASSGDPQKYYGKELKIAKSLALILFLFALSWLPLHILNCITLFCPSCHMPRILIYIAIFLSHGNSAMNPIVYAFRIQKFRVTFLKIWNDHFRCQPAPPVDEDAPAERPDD

For orientation: Ki means the equilibrium dissociation constant of an inhibitor or competing ligand from its target.

Sequence of Adenosine receptor A2a (P29274 whole entry): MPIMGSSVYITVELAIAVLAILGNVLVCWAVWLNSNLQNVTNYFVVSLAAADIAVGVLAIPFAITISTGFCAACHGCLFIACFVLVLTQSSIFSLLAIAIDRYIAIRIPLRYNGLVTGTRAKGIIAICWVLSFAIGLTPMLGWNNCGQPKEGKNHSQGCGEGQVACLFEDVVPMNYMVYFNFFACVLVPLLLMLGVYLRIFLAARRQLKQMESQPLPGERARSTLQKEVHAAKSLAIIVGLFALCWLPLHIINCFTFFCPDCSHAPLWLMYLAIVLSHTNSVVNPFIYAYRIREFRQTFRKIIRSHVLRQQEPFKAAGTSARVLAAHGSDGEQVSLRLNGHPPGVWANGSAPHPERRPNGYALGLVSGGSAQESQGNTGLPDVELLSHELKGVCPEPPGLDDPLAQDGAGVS

Compound `CCn1c(=O)c2[nH]c(-c3ccccc3)nc2n(CC)c1=O` [1,3-Diethyl-8-phenyl-3,7-dihydro-purine-2,6-dione] displayed an inhibition constant Ki on Adenosine receptor A2a of 210000 pM.
Compound `CCCn1c(=O)c2[nH]c(C3CCCC3)nc2n(CCC)c1=O` [DPCPX] yielded a Ki at Adenosine receptor A1 of 70 pM.
With `CCCn1c(=O)c2[nH]c(-c3ccc(OCC(=O)NCCN)cc3)nc2n(CCC)c1=O` [N-(2-Amino-ethyl)-2-[4-(2,6-dioxo-1,3-dipropyl-2,3,6,9-tetrahydro-1H-purin-8-yl)-phenoxy]-acetamide], the Ki at Adenosine receptor A1 is 80 pM.
